Laboratory results published in article PMC5615155 (Toxicology Reports, 2017).

What was measured:
solubility / dissolution = type: physicochemical
[1] = toxicokinetics in 13-week dietary study; type: in vivo, Sprague-Dawley rats; conditions: for bioavailability of S8069 in 13-week study: male and female, range
[2] = single-dose pharmacokinetics and oral bioavailability; type: in vivo, Sprague-Dawley rats; conditions: for AUClast / Cmax: S2218 in plasma
[3] = dose range-finding developmental toxicity study; type: in vivo, Crl:CD(SD) rats
[4] = Day 7, 140 mg/kg bw diet, M + F
[5] = Day 91, 30 mg/kg bw diet, M + F
[6] = Day 91, 70 mg/kg bw diet, M + F
[7] = Day 91, 140 mg/kg bw diet, M + F
[8] = S8069 oral gavage, 7.83 mg/kg bw S2218 equiv., F
[9] = S8069 oral gavage, 7.83 mg/kg bw S2218 equiv., M
[10] = S8069 oral gavage, 78.3 mg/kg bw S2218 equiv., F
[11] = S8069 oral gavage, 78.3 mg/kg bw S2218 equiv., M

## Cc1cc(C(=O)NC(C)(C)COc2cccc3c2C(N)=NS(=O)(=O)N3)cc(C)n1.O=S(=O)(O)O [S8069]
Solubility / dissolution
  solubility in water: very soluble in water
Solubility / dissolution; S8069 at 10 mg/mL, S2218 at all dose levels
  state in 1% methylcellulose dosing formulation: completely dissolved
[1]; 30 mg/kg bw, F
  ACUM Ratio (dose-normalized AUC0-24h Day 91/Day 7): 1.35
[1]; 30 mg/kg bw, M
  ACUM Ratio (dose-normalized AUC0-24h Day 91/Day 7): 2.86
[1]; 30 mg/kg bw, M + F
  ACUM Ratio (dose-normalized AUC0-24h Day 91/Day 7): 1.88
[1]; 70 mg/kg bw, F
  ACUM Ratio (dose-normalized AUC0-24h Day 91/Day 7): 0.821
[1]; 70 mg/kg bw, M
  ACUM Ratio (dose-normalized AUC0-24h Day 91/Day 7): 1.07
[1]; 70 mg/kg bw, M + F
  ACUM Ratio (dose-normalized AUC0-24h Day 91/Day 7): 0.954
[1]; 140 mg/kg bw, F
  ACUM Ratio (dose-normalized AUC0-24h Day 91/Day 7): 0.768
[1]; 140 mg/kg bw, M
  ACUM Ratio (dose-normalized AUC0-24h Day 91/Day 7): 4.55
[1]; 140 mg/kg bw, M + F
  ACUM Ratio (dose-normalized AUC0-24h Day 91/Day 7): 2.30
[1]; Day 7, 30 mg/kg bw
  F:M Ratio (AUC0-24h/Dose): 1.75
[1]; Day 7, 30 mg/kg bw diet, F
  AUC0-24h: 0.253 µg·h/mL
  AUC0-24h/Dose: 9.10 ng·h/mL/mg/kg
  Cmax: 0.0201 µg/mL
  Cmax/Dose: 0.723 ng/mL/mg/kg
  Tmax: 3 h
[1]; Day 7, 30 mg/kg bw diet, M
  AUC0-24h: 0.134 µg·h/mL
  AUC0-24h/Dose: 5.19 ng·h/mL/mg/kg
  Cmax: 0.014 µg/mL
  Cmax/Dose: 0.543 ng/mL/mg/kg
  Tmax: 1 h
[1]; Day 7, 30 mg/kg bw diet, M + F
  AUC0-24h: 0.194 µg·h/mL
  AUC0-24h/Dose: 7.24 ng·h/mL/mg/kg
  Cmax: 0.0111 µg/mL
  Cmax/Dose: 0.414 ng/mL/mg/kg
  Tmax: 3 h
[1]; Day 7, 70 mg/kg bw
  F:M Ratio (AUC0-24h/Dose): 0.914
[1]; Day 7, 70 mg/kg bw diet, F
  AUC0-24h: 0.61 µg·h/mL
  AUC0-24h/Dose: 9.33 ng·h/mL/mg/kg
  Cmax: 0.0444 µg/mL
  Cmax/Dose: 0.679 ng/mL/mg/kg
  Tmax: 0 h
[1]; Day 7, 70 mg/kg bw diet, M
  AUC0-24h: 0.641 µg·h/mL
  AUC0-24h/Dose: 10.2 ng·h/mL/mg/kg
  Cmax: 0.0328 µg/mL
  Cmax/Dose: 0.522 ng/mL/mg/kg
  Tmax: 6 h
[1]; Day 7, 70 mg/kg bw diet, M + F
  AUC0-24h: 0.626 µg·h/mL
  AUC0-24h/Dose: 9.77 ng·h/mL/mg/kg
  Cmax: 0.0343 µg/mL
  Cmax/Dose: 0.535 ng/mL/mg/kg
  Tmax: 12 h
[1]; Day 7, 140 mg/kg bw
  F:M Ratio (AUC0-24h/Dose): 1.48
[1]; Day 7, 140 mg/kg bw diet, F
  AUC0-24h: 1.64 µg·h/mL
  AUC0-24h/Dose: 12.0 ng·h/mL/mg/kg
  Cmax: 0.137 µg/mL
  Cmax/Dose: 1.00 ng/mL/mg/kg
  Tmax: 24 h
[1]; Day 7, 140 mg/kg bw diet, M
  AUC0-24h: 1.02 µg·h/mL
  AUC0-24h/Dose: 8.16 ng·h/mL/mg/kg
  Cmax: 0.057 µg/mL
  Cmax/Dose: 0.456 ng/mL/mg/kg
  Tmax: 6 h
[1]; [4]
  AUC0-24h: 1.33 µg·h/mL
  AUC0-24h/Dose: 10.15 ng·h/mL/mg/kg
  Cmax: 0.0865 µg/mL
  Cmax/Dose: 0.660 ng/mL/mg/kg
  Tmax: 6 h
[1]; Day 7, food ad-mix
  bioavailability of S8069 in 13-week study: 1.28–3.36%
[1]; Day 91, 30 mg/kg bw
  F:M Ratio (AUC0-24h/Dose): 0.828
[1]; Day 91, 30 mg/kg bw diet, F
  AUC0-24h: 0.376 µg·h/mL
  AUC0-24h/Dose: 12.3 ng·h/mL/mg/kg
  Cmax: 0.0588 µg/mL
  Cmax/Dose: 1.93 ng/mL/mg/kg
  Tmax: 6 h
[1]; Day 91, 30 mg/kg bw diet, M
  AUC0-24h: 0.427 µg·h/mL
  AUC0-24h/Dose: 14.9 ng·h/mL/mg/kg
  Cmax: 0.0358 µg/mL
  Cmax/Dose: 1.25 ng/mL/mg/kg
  Tmax: 6 h
[1]; [5]
  AUC0-24h: 0.402 µg·h/mL
  AUC0-24h/Dose: 13.6 ng·h/mL/mg/kg
  Cmax: 0.0473 µg/mL
  Cmax/Dose: 1.60 ng/mL/mg/kg
  Tmax: 6 h
[1]; Day 91, 70 mg/kg bw
  F:M Ratio (AUC0-24h/Dose): 0.703
[1]; Day 91, 70 mg/kg bw diet, F
  AUC0-24h: 0.507 µg·h/mL
  AUC0-24h/Dose: 7.67 ng·h/mL/mg/kg
  Cmax: 0.0278 µg/mL
  Cmax/Dose: 0.421 ng/mL/mg/kg
  Tmax: 0 h
[1]; Day 91, 70 mg/kg bw diet, M
  AUC0-24h: 0.748 µg·h/mL
  AUC0-24h/Dose: 10.9 ng·h/mL/mg/kg
  Cmax: 0.0604 µg/mL
  Cmax/Dose: 0.880 ng/mL/mg/kg
  Tmax: 3 h
[1]; [6]
  AUC0-24h: 0.627 µg·h/mL
  AUC0-24h/Dose: 9.32 ng·h/mL/mg/kg
  Cmax: 0.04 µg/mL
  Cmax/Dose: 0.594 ng/mL/mg/kg
  Tmax: 3 h
[1]; Day 91, 140 mg/kg bw
  F:M Ratio (AUC0-24h/Dose): 0.248
[1]; Day 91, 140 mg/kg bw diet, F
  AUC0-24h: 1.12 µg·h/mL
  AUC0-24h/Dose: 9.18 ng·h/mL/mg/kg
  Cmax: 0.085 µg/mL
  Cmax/Dose: 0.697 ng/mL/mg/kg
  Tmax: 12 h
[1]; Day 91, 140 mg/kg bw diet, M
  AUC0-24h: 4.55 µg·h/mL
  AUC0-24h/Dose: 37.0 ng·h/mL/mg/kg
  Cmax: 0.358 µg/mL
  Cmax/Dose: 2.91 ng/mL/mg/kg
  Tmax: 12 h
[1]; [7]
  AUC0-24h: 2.84 µg·h/mL
  AUC0-24h/Dose: 23.3 ng·h/mL/mg/kg
  Cmax: 0.222 µg/mL
  Cmax/Dose: 1.82 ng/mL/mg/kg
  Tmax: 12 h
[1]; Day 91, food ad-mix
  bioavailability of S8069 in 13-week study: 2.15–9.14%
[2]; [8]
  %F: 0.77%
  Tmax: 0.250 ± 0.0 h
  t1/2: 1.15 ± 0.353 h
  AUClast: 0.0264 ± 0.0143 µg·h/mL
  Cmax: 0.0244 ± 0.0101 µg/mL
[2]; [9]
  %F: 0.60%
  Tmax: 0.313 ± 0.125 h
  t1/2: 0.786 ± 0.110 h
  AUClast: 0.0236 ± 0.00526 µg·h/mL
  Cmax: 0.0214 ± 0.00154 µg/mL
[2]; [10]
  %F: 0.29%
  Tmax: 0.250 ± 0.0 h
  t1/2: 0.969 ± 0.315 h
  AUClast: 0.0991 ± 0.0232 µg·h/mL
  Cmax: 0.106 ± 0.0397 µg/mL
[2]; [11]
  %F: 0.14%
  Tmax: 0.250 ± 0.0 h
  t1/2: 0.860 ± 0.340 h
  AUClast: 0.0556 ± 0.0178 µg·h/mL
  Cmax: 0.0605 ± 0.0169 µg/mL
[2]; oral, both test articles, male and female rats, all doses
  %F: 0.14–0.77%
[3]; 125–1000 mg/kg bw/day
  external developmental malformations or variations in fetuses: No external developmental malformations or variations were observed
[3]; 125–1000 mg/kg bw/day oral gavage, GD 6–20
  Findings: No maternal toxicity or effect on intrauterine growth up to 1000 mg/kg bw/day
